Results: patent US20240140931A1, “TRICYCLIC COMPOUNDS AND USES THEREOF” (HUTCHMED LIMITED, priority 2021, published 2024)

Assays:
[1] = target: Human full-length SHP2 recombinant protein (Homo sapiens (Human), UniProt Q06124); experiment: Assay of full-length SHP2 phosphatase activity; format: biochemical; details: DiFMUP substrate, with activating peptide
Experimental: Example 2 Assay of Full-Length SHP2 Phosphatase Activity
1. Reagents and Materials • Human full-length SHP2 recombinant protein: BPS Bioscience, Cat #79018; • SHP2 substrate DiFMUP (1 mM): BPS Bioscience, Cat #79769; • SHP2 activating peptide (100 μM): BPS Bioscience, Cat #79319-2; • DTT: Merck, Cat #DTT-RO; • 384-well plate: Corning, Cat #3575; • 96-well plate: Thermo Fisher Scientific, Cat #249952; • Instrument: EnVision 2104, PerkinElmer.
2. Preparation of Reaction Solutions
The test compound was dissolved in DMSO and diluted with DMSO to 100.0 μM, and the compound was further 3-fold diluted with DMSO to: 100.00, 33.33, 11.11, 3.70, 1.23, 0.41, 0.14 and 0.05 μM.
3. Experimental Steps • To the corresponding wells of the 384-well plate was added 2.5 μL of 4× test compound or 2.5 μL of 4% DMSO solution, and centrifugation was carried out at 1000 rpm for 30 seconds. • To the test compound well and positive control well was added 2.5 μL of 4× mixed solution of SHP2 enzyme/activating peptide while to the negative control well was added 2.5 μL of 1× enzymatic reaction buffer; centrifugation was carried out at 1000 rpm for 30 seconds and incubation was carried out at room temperature for 30 minutes. • To each well was added 5 μL of 2×DiFMUP substrate to initiate the enzymatic reaction, then the plate was transiently oscillated and centrifuged at 1000 rpm for 30 seconds, and the 384-well plate was sealed with a sealing membrane and incubated at 25° C. on a low-speed shaker (100 rpm) in the dark for 60 minutes. • The fluorescence value (relative fluorescence units, RFU) of each well was detected on EnVision2104 (excitation: 355 nm, emission: 460 nm).
wherein • the RFU of compound well refers to the fluorescence reading at 460 nm of the well containing the test compounds; • the RFU of negative control well refers to the fluorescence reading at 460 nm of the background well containing 1% DMSO and the enzymatic reaction buffer; • the RFU of positive control well refers to the fluorescence reading at 460 nm of the well containing 1% DMSO and the mixed solution of SHP2 enzyme/activating peptide.
(§1) IC50 values were calculated following formula 205: y=A+((B−A)/(1+((C/X)^D))), by using the XL-Fit 5.0 software.

[2] = tested on: pERK1/2 (Thr202/Tyr204) in Miapaca2 cells; experiment: Assay of intracellular pERK1/2 (Thr202/Tyr204) phosphorylation; format: cell-based
Experimental: Example 3 Assay of Intracellular pERK1/2 (Thr202/Tyr204) Phosphorylation
1. Reagents and Materials • pERK1/2 (Thr202/Tyr204) HTRF kit: Cisbio, Cat #64ERKPEH; • Cell line: Miapaca2, ATCC, CRL-1420; • OptiPlate™-384-well plate: PerkinElmer, Cat #6007299; • 96-well plate: Corning, Cat #353072; • Instrument: EnVision2104, PerkinElmer.
2. Preparation of Reaction Solutions • The test compound was dissolved in DMSO and diluted with DMSO to 600.0 μM, and the compound was further 3-fold diluted with DMSO to: 600.0, 200.0, 66.7, 22.2, 7.4, 2.5, 0.82 and 0.27 μM. Then 10 μL of the compound at different dilution concentrations was added to 190 μL of a DMEM medium to prepare a 10× test compound, wherein DMSO was at the concentration of 5% (DMSO was at the final concentration of 0.5%). • 1× cell lysis buffer: 4× cell lysis stock solution (provided by the kit) was diluted 4-fold with deionized water, and then 1% 100× blocking stock solution (provided by the kit) was added thereto. • pERK1/2 detection solution (prepared just before use): the pERK1/2 d2 antibody (provided by the kit) and pERK1/2 Cryptate antibody (provided by the kit) were diluted with the detection solution (provided by the kit) at a ratio of 1:1:38.
3. Experimental Steps • Miapaca2 cells were inoculated into a 96-well plate at a density of 10000 cells/well at 90 μL/well and cultured in a cell incubator at 5% CO2 and 37° C. overnight. • 10 μL of 10× test compound was added to the 90 μL cell culture 96-well plate; to the cell positive control well was added 10 μL of 5% DMSO culture solution; and the plate was cultured in a cell incubator at 5% CO2 and 37° C. for 2 hours. • The medium in the 96-well plate was removed; 50 μL of 1× cell lysis buffer was added to each well; the plate was placed in a microplate shaker; and lysis under shaking was carried out at 900 rpm at room temperature for 1 hour. • 16 μL of the lysis buffer in the 96-well plate was taken and transferred to a 384-well plate, and centrifugation was carried out at 1000 rpm for 30 seconds; then 4 μL of pERK1/2 detection solution was added to each well and centrifugation was carried out at 1000 rpm for 30 seconds; and the 384-well plate was sealed with a sealing membrane and incubated at 25° C. on a low-speed shaker (100 rpm) in the dark for 2 hours. • The fluorescence value (relative fluorescence units, RFU) of each well was detected on EnVision2104 (emission 1: 665 nm, emission 2: 615 nm).
wherein • the fluorescence ratio of compound well refers to the fluorescence ratio of the well containing the test compounds; • the fluorescence ratio of negative control well refers to the fluorescence ratio of the background containing the cell lysis buffer and no Miapaca2 cells; • the fluorescence ratio of positive control well refers to the fluorescence ratio of the well containing 0.5% DMSO and Miapaca2 cells.
as §1

[3] = Homo sapiens, MIA PaCa-2, 2 h, pERK1/2 (Thr202/Tyr204) HTRF
[4] = pERK1/2 (Thr202/Tyr204) HTRF, 2 hours
[5] = Homo sapiens, MIA PaCa-2, pERK1/2 (Thr202/Tyr204) HTRF, 2 hours

IC50 [1] [nM]	IC50 [2, 3] [nM]	IC50 [2, 4] [nM]	Structure (SMILES)	IC50 [2, 5] [nM]
21	115		C#Cc1ccc2c(c1)[C@@H](N)C1(CCN(c3cc(=O)n(-c4ccc(F)cc4F)c(C)n3)CC1)C2 [Compound 41]	
44	599		Cc1nc(N2CCC3(CC2)Cc2ccc(C#C[C@@H](C)O)cc2[C@H]3N)cc(=O)n1-c1cccc(Cl)c1Cl [Compound 37]	
> 1000			C#Cc1ccc2c(c1)OC1(CCN(c3cc(=O)n(-c4ccc(F)c(F)c4)c(C)n3)CC1)[C@@H]2N [Compound 13]	
7	155		C#Cc1ccc2c(c1)[C@@H](N)C1(CCN(c3cc(=O)n(-c4ccc(C#N)cc4Cl)c(C)n3)CC1)C2 [Compound 94]	
		> 1000	C#Cc1ccc2c(c1)[C@@H](N)C1(CCN(c3cc(=O)n(-c4cccc(C#N)c4Cl)c(C)n3)CC1)C2 [Compound 267]	
4		34	C#Cc1ccc2c(c1)[C@@H](N)C1(CCN(c3cc(=O)n(-c4cccc(Cl)c4F)c(C)n3)CC1)C2 [Compound 16]	
0.6	13		Cc1nc(N2CCC3(CC2)Cc2ccc(C#CC(N)=O)cc2[C@H]3N)cc(=O)n1-c1cccc(Cl)c1Cl [Compound 127]	
541			C#Cc1ccc2c(c1)CC1(CCN(c3cc(=O)n(-c4ccc(F)c(F)c4)c(C)n3)CC1)[C@@H]2N [Compound 21]	
		56	C#Cc1ccc2c(c1)[C@@H](N)C1(CCN(c3cc(=O)n(-c4ccc(F)c(F)c4Cl)c(C)n3)CC1)C2 [Compound 77]	
		260	C#Cc1ccc2c(c1)[C@@H](N)C1(CCN(c3cc(=O)n(-c4cc(OC)ccc4Cl)c(C)n3)CC1)C2 [Compound 58]	
757			C#Cc1ccc2c(c1)CC1(CCN(c3cc(=O)n(-c4ccccc4)c(C)n3)CC1)[C@@H]2N [Compound 23]	
412			C#Cc1ccc2c(c1)CC1(CCN(c3cc(=O)n(-c4cccc(Cl)c4Cl)c(C)n3)CC1)[C@@H]2N (atropisomer, axis not shown) [Compound 24]	
> 1000			C#Cc1ccc2c(c1)OC1(CCN(c3nc(C)n(-c4ccc(F)c(F)c4)c(=O)c3C)CC1)[C@@H]2N [Compound 14]	
310			C#Cc1ccc2c(c1)[C@@H](N)C1(CCN(c3cc(=O)n(-c4c(Cl)cccc4Cl)c(C)n3)CC1)C2 [Compound 33]	
> 1000			C#Cc1ccc2c(c1)OC1(CCN(c3cc(=O)n(-c4cccc(Cl)c4)c(C)n3)CC1)[C@@H]2N [Compound 18]	
> 1000			C#Cc1ccc2c(c1)OC1(CCN(c3cc(=O)n(-c4ccccc4)c(C)n3)CC1)[C@@H]2N [Compound 19]	
	37		Cc1nc(N2CCC3(CC2)Cc2ccc(C#CCN(C)C)cc2[C@H]3N)cc(=O)n1-c1cccc(Cl)c1Cl [Compound 52]	
> 1000			C#Cc1ccc2c(c1)OC1(CCN(c3cc(=O)n(-c4cccc(Cl)c4Cl)c(C)n3)CC1)[C@@H]2N (atropisomer, axis not shown) [Compound 28]	
348			C#Cc1ccc2c(c1)CC1(CCN(c3cc(=O)n(-c4ccc(Cl)cc4)c(C)n3)CC1)[C@@H]2N [Compound 22]	

Continued, compound first:

Structure (SMILES)	IC50 [1] [nM]	IC50 [2, 3] [nM]	IC50 [2, 4] [nM]	IC50 [2, 5] [nM]
NC(=O)C#Cc1ccc2c(c1)[C@@H](N)C1(CCN(c3ncc(Sc4ccnc(N)c4Cl)nc3CO)CC1)C2 [Compound 123]	0.6	4		
C#Cc1ccc2c(c1)[C@@H](N)C1(CCN(c3nc(C)n(-c4cccc(Cl)c4Cl)c(=O)c3C)CC1)C2 (atropisomer, axis not shown) [Compound 49]	3		18	
COCC#Cc1ccc2c(c1)[C@@H](N)C1(CCN(c3cc(=O)n(-c4cccc(Cl)c4Cl)c(C)n3)CC1)C2 [Compound 30]	2	8		
C#Cc1ccc2c(c1)CC1(CCN(c3ncc(Sc4ccnc(NCCOC)c4Cl)c4nccn34)CC1)[C@@H]2N [Compound 3]	9	81		
COCC#Cc1ccc2c(c1)[C@@H](N)C1(CCN(c3nc(C)n(-c4cccc(Cl)c4Cl)c(=O)c3C)CC1)C2 [Compound 36]	6	33		
CC#Cc1ccc2c(c1)[C@@H](N)C1(CCN(c3cnc(Sc4ccnc(N)n4)c(N)n3)CC1)C2 [Compound 134]	1.4	5		
C#Cc1ccc2c(c1)[C@@H](N)C1(CCN(c3nc(C)n(-c4ccc(OCC)cc4Cl)c(=O)c3C)CC1)C2 [Compound 92]	11	117		
COCC#Cc1cccc2c1CC1(CCN(c3ncc(Sc4ccnc(N)c4Cl)c4nccn34)CC1)[C@@H]2N [Compound 97]	2	11		
C#Cc1ccc2c(c1)CC1(CCN(c3nc(N)c(Sc4ccnc(N)c4Cl)c(=O)n3C)CC1)[C@@H]2N [Compound 5]	2	23		
CNCC#Cc1ccc2c(c1)[C@@H](N)C1(CCN(c3ncc(Sc4ccnc(N)c4Cl)c4nccn34)CC1)C2 [Compound 91]	0.7	17		
CC#Cc1ccc2c(c1)[C@@H](N)C1(CCN(c3cc(=O)n(-c4ccc(F)c(F)c4Cl)c(C)n3)CC1)C2 (atropisomer, axis not shown) [Compound 218]	104		944	
CC#Cc1ccc2c(c1)[C@@H](N)C1(CCN(c3ncc(Sc4ccnc(N)c4Cl)c(N)n3)CC1)C2 [Compound 215]	25	167		
C#Cc1ccc2c(c1)[C@@H](N)C1(CCN(c3cc(=O)n(-c4cccc(Cl)c4Cl)c(C)n3)CC1)C2 (atropisomer, axis not shown) [Compound 12, (S)-6-(1-amino-6-ethynyl-1,3-dihydrospiro[indene-2,4′-piperidin]-1′-yl)-3-(2,3-dichlorophenyl)-2-methylpyrimidin-4(3H)-one]	1			7
C#Cc1ccc2c(c1)CC1(CCN(c3ncc(-c4cn(C)c5ncccc45)c4nccn34)CC1)[C@@H]2N [Compound 6]	420	> 3000		
Cc1nc(N2CCC3(CC2)Cc2ccc(SC4COC4)cc2[C@H]3N)cc(=O)n1-c1cccc(Cl)c1Cl [Compound 81, (S)-6-(1-amino-6-(oxetan-3-ylthio)-1,3-dihydrospiro[indene-2,4′-piperidin]-1′-yl)-3-(2,3-dichlorophenyl)-2-methylpyrimidin-4(3H)-one]				89
COCC#Cc1ccc2c(c1)[C@@H](N)C1(CCN(c3cc(=O)n(-c4cccc(Cl)c4Cl)c(C(F)(F)F)n3)CC1)C2 [Compound 130]	> 1000			
